Source: patent US20250062040A1, “COMPUTER-BASED SYSTEMS FOR ACQUIRING AND ANALYZING OBS[…] DATA” (priority 2021, published 2025)

Experiments:
[1] = eye temperature by automated thermographic system of behavioral platform; type: in vivo, mice; conditions: 1 mg/kg intraperitoneally, tested after 15 minutes, 45-minute session, vs vehicle, FIG. 37
From the text: In some embodiments, with regard to image calibration, in an experimental session, actual Peltier temperatures may be logged and saved along with the thermal camera video. The logged Peltier temperatures in Celsius can be paired to the optical density (OD) levels measured at the two Peltier ROIs in each corresponding frame, so that a linear calibration curve can be used to convert the OD of measured eye ROIs to degrees Celsius.
In some embodiments, the subject body, such as a mouse, can be segmented based on the optical density distribution on each frame. The contour of the mouse can be masked by finding the largest eight-connected objects in the binarized image as shown in FIG. 36. […] The size of the eye region relative to the mask and shape properties such as ‘Eccentricity’ (ratio of the distance between the foci of the ellipse and its major axis length) and ‘Solidity’ (proportion of the pixels in the convex hull that are also in the region, computed as Area/ConvexArea) can be measured to filter out false positives, when those parameters may be outside of the range learned from manually annotated ground truth examples.
In some embodiments, with regard to feature extraction, the average OD of automatically detected eye ROIs can be converted to Celsius based on the calibration curve. […]

[2] = core temperature by rectal temperature measurement; type: in vivo, mice; conditions: 1 mg/kg intraperitoneally; before injection vs just prior to thermal camera recording
Experimental: In some embodiments, a validation experiment can test whether this method may effectively detect changes in body temperature induced by drugs from thermal videos. In one such test, two groups of mice can be treated with chlorpromazine 1 mg/kg (n=13) or vehicle (n=14) intraperitoneally, and tested after 15 minutes under the thermal camera system. An average change of 0.9 degree Celsius in core temperature was observed by measuring rectal temperature of animals before injection and just prior to their thermal camera recording.

Male SD rats = test: rat forced swim test, long lasting antidepressant-like effects; type: in vivo; conditions: vs vehicle group, p<0.05; IP 24 H prior to testing; ketamine 10 mg/kg, Enantiomer I2 30 mg/kg
Experimental: Male SD rats from Envigo (IN) were used in the study. Ketamine (10 mg/kg) was dissolved in saline and administered IP at a dose volume of 1 ml/kg 24 H prior testing. Enantiomer I2 was dissolved in PBS and administered IP at a dose volume of 1 ml/kg 24 H prior to testing. Videos were scored by an observer blinded to the treatment and frequency of immobility, climbing and swimming were measured. Data were analyzed by ANOVA followed by post hoc analysis where appropriate.

[3] = pEEG spectral power signature; type: in vivo; conditions: 2-h post-injection, normalized against baseline, different doses, FIG. 21
Experimental: In some embodiments, pEEG may be recorded 1 hour before drug administration and for 2 hours after drug administration from all recorded brain regions simultaneously. To maximize the clinical translatability of a pEEG preclinical database, the frontal cortex and parietal cortex can be selected without limitation. ECoG EEG from these electrodes may be shown to offer direct rodent-to-human translation. Additionally, the hippocampus and striatum can be targeted for indwelling local field potential (LFP) recordings to investigate pharmacological responses on brain regions known to be innervated by different neurotransmitter systems.
In some embodiments, pEEG data consumed by a behavioral platform classier or other machine learning model can be processed first to remove artifacts. […] The average standard frequency bands are shown in Table IV listing the analyzed standard frequency bands. […]
In some embodiments, a normalization against the baseline pre-drug may be convenient, although other types of normalization may be used without limitation. pEEG and accelerometer spectrums can be normalized to the corresponding mean value x_mean during the pre-dosing interval [0, 1 hour](baseline): x_norm=(x−x_mean)/x_mean. For both pEEG and accelerometer data, the post-dosing features (obtained during the 2-hour post-dosing period) can be expressed as percent change from pre-dose baseline. […]

Question: For `CN(C)CCCN1c2ccccc2Sc2ccc(Cl)cc21` [chlorpromazine], which estimated eye temperature [1] is on record?
Answer: Its estimated eye temperature is “decrease of estimated eye temperature”.

Question: And the “average change in core temperature (rectal temperature)” value [2]?
Answer: The value was 0.9 degree Celsius.

Question: What does the source list for `CNC1(c2ccccc2Cl)CCCCC1=O` (centres unmarked) [ketamine]?
Answer: frequency of immobility in the forced swim (Male SD rats): reduced immobility; frequency of swimming in the forced swim (Male SD rats): increased swimming; change in pEEG power of high frequencies (gamma) [3]: dose-dependent short-term increase
